This passage reports IC50 results from patent publication US20210070748A1, “INHIBITORS OF BRUTONS TYROSINE KINASE” (Pharmacyclics LLC, priority 2015, published 2021).

The target in one assay is T1, JAK3 (Homo sapiens, UniProt P52333).
T1 sequence (P52333 1-1124): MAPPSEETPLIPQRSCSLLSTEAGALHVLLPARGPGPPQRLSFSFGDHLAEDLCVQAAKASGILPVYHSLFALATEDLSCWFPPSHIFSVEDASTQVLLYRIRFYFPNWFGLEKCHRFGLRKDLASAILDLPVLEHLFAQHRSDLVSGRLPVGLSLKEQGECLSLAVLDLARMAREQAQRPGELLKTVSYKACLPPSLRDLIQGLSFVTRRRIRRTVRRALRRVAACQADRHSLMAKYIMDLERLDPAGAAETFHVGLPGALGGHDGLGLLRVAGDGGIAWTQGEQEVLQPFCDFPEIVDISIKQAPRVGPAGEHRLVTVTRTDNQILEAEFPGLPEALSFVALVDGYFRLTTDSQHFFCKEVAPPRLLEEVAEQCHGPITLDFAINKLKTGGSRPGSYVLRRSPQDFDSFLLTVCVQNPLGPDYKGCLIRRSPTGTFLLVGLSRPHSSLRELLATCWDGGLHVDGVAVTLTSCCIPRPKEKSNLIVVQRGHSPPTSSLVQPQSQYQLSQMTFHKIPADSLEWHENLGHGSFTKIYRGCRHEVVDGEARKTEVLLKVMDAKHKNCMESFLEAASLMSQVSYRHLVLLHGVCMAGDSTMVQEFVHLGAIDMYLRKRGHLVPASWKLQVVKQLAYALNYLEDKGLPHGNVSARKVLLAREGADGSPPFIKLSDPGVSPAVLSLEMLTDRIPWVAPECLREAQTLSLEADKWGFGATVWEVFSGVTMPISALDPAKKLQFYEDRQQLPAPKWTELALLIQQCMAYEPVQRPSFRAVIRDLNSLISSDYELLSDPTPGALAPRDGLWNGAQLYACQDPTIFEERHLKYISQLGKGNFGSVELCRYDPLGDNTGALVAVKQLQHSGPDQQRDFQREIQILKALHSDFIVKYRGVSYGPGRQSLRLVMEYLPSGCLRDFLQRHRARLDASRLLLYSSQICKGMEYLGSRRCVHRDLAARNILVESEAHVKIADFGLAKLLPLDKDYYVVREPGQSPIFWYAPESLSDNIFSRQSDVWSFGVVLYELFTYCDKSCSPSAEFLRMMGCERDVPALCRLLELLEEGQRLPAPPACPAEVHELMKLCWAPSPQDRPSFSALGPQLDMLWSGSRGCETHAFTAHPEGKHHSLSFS
The experiment in a line: Inhibition of a panel of kinases, in vitro HotSpot kinase assay: JAK3. In kind it is biochemical. The conditions noted are these: D-compounds panel data; 1 μM ATP; read-out: IC50 JAK3.

In a further assay the target is T2, TEC (Homo sapiens, UniProt P42680).
T2 sequence (P42680 1-631): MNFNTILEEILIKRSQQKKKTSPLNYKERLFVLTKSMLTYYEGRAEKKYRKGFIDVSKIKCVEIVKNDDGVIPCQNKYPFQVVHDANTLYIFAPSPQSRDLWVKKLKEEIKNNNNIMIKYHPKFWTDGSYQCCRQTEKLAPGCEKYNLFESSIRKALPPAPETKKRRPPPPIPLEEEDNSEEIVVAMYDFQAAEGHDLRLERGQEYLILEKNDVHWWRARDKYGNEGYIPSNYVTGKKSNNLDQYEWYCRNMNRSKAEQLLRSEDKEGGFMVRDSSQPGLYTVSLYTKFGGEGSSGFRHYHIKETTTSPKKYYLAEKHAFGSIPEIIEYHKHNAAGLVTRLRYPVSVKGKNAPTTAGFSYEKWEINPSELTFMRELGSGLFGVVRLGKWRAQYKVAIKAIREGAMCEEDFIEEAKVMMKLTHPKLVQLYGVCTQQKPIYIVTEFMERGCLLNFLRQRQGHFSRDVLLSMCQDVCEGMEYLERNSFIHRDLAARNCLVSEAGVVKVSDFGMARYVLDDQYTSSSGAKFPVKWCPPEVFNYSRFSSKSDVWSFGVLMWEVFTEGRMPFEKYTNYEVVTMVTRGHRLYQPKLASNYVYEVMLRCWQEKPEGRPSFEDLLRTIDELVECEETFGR
The experiment in a line: Inhibition of a panel of kinases, in vitro HotSpot kinase assay: TEC. The note with it: D-compounds panel data; 1 μM ATP. It counts as biochemical. How it is done: The degree of inhibition of a panel of kinases is determined using the in vitro HotSpot kinase assay (purified enzymes, ^33P-ATP, an appropriate substrate and 1 μM ATP).

Consider `C[C@@H]1[C@H](NC(=O)c2ccc(C3(O)CC3)cc2)CCCN1c1cnc(C(N)=O)c(Nc2cnn(C)c2)n1` [Example D-235, 5-[(2R,3R)-3-[4-(1-hydroxycyclopropyl)benzamido]-2-methylpiperidin-1-yl]-3-[(1-methyl-1H-pyrazol-4-yl)amino]pyrazine-2-carboxamide], for which the IC50 on JAK3 is 100 to 1000 nM; against TEC it was no more than 10 nM.

Take `Cc1cc(Nc2nc(N3CCC[C@H](c4ncc(-c5ccccc5)[nH]4)C3)cnc2C(N)=O)sn1` [Example D-172, 3-[(3-methyl-1,2-thiazol-5-yl)amino]-5-[(3S)-3-(5-phenyl-1H-imidazol-2-yl)piperidin-1-yl]pyrazine-2-carboxamide]: the IC50 at JAK3 and on TEC was 100 to 1000 nM each time.

In the case of `C[C@@H]1[C@H](NC(=O)c2ccc(C(C)(C)C)s2)CCCN1c1cnc(C(N)=O)c(Nc2cnn(C)c2)n1` [Example D-229, 5-[(2R,3R)-3-(5-tert-butylthiophene-2-amido)-2-methylpiperidin-1-yl]-3-[(1-methyl-1H-pyrazol-4-yl)amino]pyrazine-2-carboxamide], the IC50 on JAK3 is greater than 10000 nM; against TEC, 10 to 100 nM.

`Cn1cc(Nc2nc(N3C4CCC(NC(=O)c5ccc(C6CC6)cc5)C3CC4)cnc2C(N)=O)cn1` (single isomer, unassigned) [Example D-200, 5-[2-(4-cyclopropylbenzamido)-8-azabicyclo[32.1]octan-8-yl]-3-[(1-methyl-1H-pyrazol-4-yl)amino]pyrazine-2-carboxamide]: the IC50 was greater than 10000 nM at JAK3 and 1000 to 10000 nM on TEC.

Take `Cn1cc(Nc2nc(N3CCC(F)(F)[C@H](NC(=O)c4ccc(C5CC5)cc4)C3)cnc2C(N)=O)cn1` [Example D-192, 5-[(3R)-3-(4-cyclopropylbenzamido)-4,4-difluoropiperidin-1-yl]-3-[(1-methyl-1H-pyrazol-4-yl)amino]pyrazine-2-carboxamide]: the IC50 on JAK3 and against TEC was 1000 to 10000 nM each time.

`C[C@@H]1[C@H](NC(=O)c2ccc(N(C)C)cc2)CCCN1c1cnc(C(N)=O)c(Nc2ccc(N3CCN(C)CC3)cc2)n1` [Example D-196, 5-[(2R,3R)-3-[4-(dimethylamino)benzamido]-2-methylpiperidin-1-yl]-3-{[4-(4-methylpiperazin-1-yl)phenyl]amino}pyrazine-2-carboxamide]: the IC50 at JAK3 fell in the range of 100 to 1000 nM; at TEC, 10 to 100 nM.

For `C[C@@H]1[C@H](NC(=O)c2ncc(C3CC3)cn2)CCCN1c1cnc(C(N)=O)c(Nc2cnn(C)c2)n1` [Example D-198, 5-[(2R,3R)-3-(5-cyclopropylpyrimidine-2-amido)-2-methylpiperidin-1-yl]-3-[(1-methyl-1H-pyrazol-4-yl)amino]pyrazine-2-carboxamide], the IC50 at JAK3 is 100 to 1000 nM; against TEC, 10 to 100 nM.

With `C[C@@H]1[C@H](NC(=O)c2ccc(C3CC3)cc2)CCCN1c1cnc(C(N)=O)c(Nc2cnn(C3CCN(C)CC3)c2)n1` [Example D-185, 5-[(2R,3R)-3-(4-cyclopropylbenzamido)-2-methylpiperidin-1-yl]-3-{[1-(1-methylpiperidin-4-yl)-1H-pyrazol-4-yl]amino}pyrazine-2-carboxamide], the half-inhibitory concentration (IC50) fell in the range of 1000 to 10000 nM on JAK3 and 10 to 100 nM on TEC.

On to `C[C@@H]1[C@H](NC(=O)c2ccc(C3CC3)cc2F)CCCN1c1cnc(C(N)=O)c(Nc2ccc(N3CCN(C)C[C@@H]3C)cc2)n1` [Example D-12, 5-[(2R,3R)-3-(4-cyclopropyl-2-fluorobenzamido)-2-methylpiperidin-1-yl]-3-({4-[(2S)-2,4-dimethylpiperazin-1-yl]phenyl}amino)pyrazine-2-carboxamide], for which the IC50 lay within 100 to 1000 nM at JAK3 and 10 to 100 nM against TEC.

For the molecule `CN1CCN(c2ccc(Nc3nc(N4CCC[C@@H](n5ccc6cc(C7CC7)cc(F)c6c5=O)C4)cnc3C(N)=O)cc2)CC1` [Example D-174, 5-[(3R)-3-(6-cyclopropyl-8-fluoro-1-oxo-1,2-dihydroisoquinolin-2-yl)piperidin-1-yl]-3-{[4-(4-methylpiperazin-1-yl)phenyl]amino}pyrazine-2-carboxamide], the IC50 was 100 to 1000 nM on JAK3 and 10 to 100 nM against TEC.

With `C[C@@H]1[C@H](NC(=O)c2ccc3c(c2)OC(F)(F)O3)CCCN1c1cnc(C(N)=O)c(Nc2cnn(C)c2)n1` [Example D-216, 5-[(2R,3R)-3-(2,2-difluoro-2H-1,3-benzodioxole-5-amido)-2-methylpiperidin-1-yl]-3-[(1-methyl-1H-pyrazol-4-yl)amino]pyrazine-2-carboxamide], the concentration for half-maximal inhibition (IC50) on JAK3 is 100 to 1000 nM; against TEC it was no more than 10 nM.

Consider `CN1CCN(C(=O)c2ccc(Nc3nc(N4CCC[C@@H](n5ccc6cc(C7CC7)ccc6c5=O)C4)cnc3C(N)=O)cc2)CC1` [Example D-169, 5-[(3R)-3-(6-cyclopropyl-1-oxo-1,2-dihydroisoquinolin-2-yl)piperidin-1-yl]-3-{[4-(4-methylpiperazine-1-carbonyl)phenyl]amino}pyrazine-2-carboxamide], for which the figures for the half-inhibitory concentration (IC50) at JAK3 and at TEC were 100 to 1000 nM and 10 to 100 nM, respectively.

Turning to `C[C@@H]1[C@H](NC(=O)N(C)C)CCCN1c1cnc(C(N)=O)c(Nc2ccc(N3CCN(C)CC3)cn2)n1` [Example D-180, 5-[(2R,3R)-3-[(dimethylcarbamoyl)amino]-2-methylpiperidin-1-yl]-3-{[5-(4-methylpiperazin-1-yl)pyridin-2-yl]amino}pyrazine-2-carboxamide], the IC50 at JAK3 and against TEC was greater than 10000 nM in each case.

Consider `CC(C)c1ccc(S(=O)(=O)N[C@@H]2CCCN(c3cnc(C(N)=O)c(Nc4cnn(C)c4)n3)[C@@H]2C)cc1` [Example D-220, 3-[(1-methyl-1H-pyrazol-4-yl)amino]-5-[(2R,3R)-2-methyl-3-[4-(propan-2-yl)benzenesulfonamido]piperidin-1-yl]pyrazine-2-carboxamide], for which the IC50 on JAK3 and on TEC was 1000 to 10000 nM throughout.

Consider `Cn1cc(Nc2nc(N3CCC[C@@H](NC(=O)c4ccc(C5CC5)cc4)C3)nnc2C(N)=O)cn1` [Example D-195, 3-[(3R)-3-(4-cyclopropylbenzamido)piperidin-1-yl]-5-[(1-methyl-1H-pyrazol-4-yl)amino]-1,2,4-triazine-6-carboxamide], for which the figures for the IC50 at JAK3 and on TEC were 1000 to 10000 nM and 10 to 100 nM, respectively.

As to `Cn1cc(Nc2nc(N3C4CCC(NC(=O)c5ccc(C6CC6)cc5)C3CC4)cnc2C(N)=O)cn1` (single isomer, unassigned) [Example D-201, 5-[2-(4-cyclopropylbenzamido)-8-azabicyclo[3.2.1]octan-8-yl]-3-[(1-methyl-1H-pyrazol-4-yl)amino]pyrazine-2-carboxamide], the IC50 on JAK3 is 1000 to 10000 nM; on TEC it was no more than 10 nM.

For the molecule `Cc1nc2cc(C(=O)N[C@@H]3CCCN(c4cnc(C(N)=O)c(Nc5cnn(C)c5)n4)[C@@H]3C)ccc2o1` [Example D-238, N-[(2R,3R)-1-{5-carbamoyl-6-[(1-methyl-1H-pyrazol-4-yl)amino]pyrazin-2-yl}-2-methylpiperidin-3-yl]-2-methyl-1,3-benzoxazole-5-carboxamide], the figures for the IC50 on JAK3 and against TEC were 100 to 1000 nM and no more than 10 nM, respectively.

As for `CC(C)c1ccc(C(=O)N[C@@H]2CCCN(c3cnc(C(N)=O)c(Nc4cnn(C)c4)n3)C2)cc1` [Example D-222, 3-[(1-Methyl-1H-pyrazol-4-yl)amino]-5-[(3R)-3-[4-(propan-2-yl)benzamido]piperidin-1-yl]pyrazine-2-carboxamide], the figures for the IC50 at JAK3 and against TEC were greater than 10000 nM and 10 to 100 nM, respectively.
